This note sets out measurements from PubChem BioAssay (NCI).

Among the test systems are 786-0 renal; A549 NSCLC; HCT-15 colon; HL-60(TB) leukemia; HOP-62 NSCLC; HT29 colon; KM12 colon; LOX IMVI melanoma; NCI-H522 lung; OVCAR-8 ovarian; SF-268 CNS; SNB-19 CNS; SNB-75 CNS; T-47D breast; CCRF-CEM leukemia.
What all share (assay): NCI anticancer screen, dose series, 48 h

SMILES strings stand for the structures.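 Growth conditions: 96-well plates. Treatment: test compound, 48 hours, 5 concentrations. Analysis: linear interpolation between bracketing concentrations; unreached endpoints set to highest concentration. TGI denotes the concentration required for complete inhibition of growth.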

For the molecule `CNc1cc([N+](=O)[O-])ccc1C(=O)N1CCC[C@H]1CO`, the TGI in the assay on 786-0 renal, with A549 NSCLC, in the assay on HCT-15 colon, with HL-60(TB) leukemia, in the assay on HOP-62 NSCLC and in the assay with HT29 colon was > 100 µM in each case. Besides, the TGI with KM12 colon, in the assay with LOX IMVI melanoma, in the assay with NCI-H522 lung, in the assay with OVCAR-8 ovarian, in the assay with SF-268 CNS and with SNB-19 CNS was > 100 µM throughout. In addition, the TGI in the assay on SNB-75 CNS and with T-47D breast was > 100 µM throughout.

As for `Cc1ccc(N2C(=O)C3c4[nH]c5ccc(C)cc5c4C4CCC(C(C)(C)C)CC4C3C2=O)cc1` (stereo not given), the TGI with 786-0 renal is 17.1 µM; in the assay with A549 NSCLC, 32.8 µM; in the assay with CCRF-CEM leukemia, 26.7 µM; in the assay on HCT-15 colon, > 100 µM; in the assay with HL-60(TB) leukemia, 82.8 µM; with HOP-62 NSCLC, 24.5 µM. Further, the TGI in the assay on HT29 colon is 75.5 µM; in the assay on KM12 colon, 62.4 µM; in the assay on LOX IMVI melanoma, 55.6 µM; with NCI-H522 lung, 39.4 µM; in the assay on OVCAR-8 ovarian, 24.4 µM; with SF-268 CNS, 33.2 µM. Moreover, the values for the TGI with SNB-19 CNS and with T-47D breast were 80.5 µM and 25.9 µM, respectively.

For the molecule `CCCCN=NNc1cn(C2OC(CO)C(O)C2O)c(=O)[nH]c1=O` (stereo not given), the TGI in the assay on 786-0 renal, with A549 NSCLC, in the assay on CCRF-CEM leukemia, in the assay with HCT-15 colon, in the assay on HL-60(TB) leukemia and with HOP-62 NSCLC was > 100 µM each time. The TGI in the assay with HT29 colon, in the assay with KM12 colon, with LOX IMVI melanoma, with NCI-H522 lung, with OVCAR-8 ovarian and in the assay with SF-268 CNS was > 100 µM in each case. Also, the TGI in the assay on SNB-19 CNS and with T-47D breast was > 100 µM throughout.

On to `NS(=O)(=O)c1nnc(NS(=O)(=O)c2ccccc2[N+](=O)[O-])s1`, for which the TGI in the assay on 786-0 renal, in the assay with A549 NSCLC, in the assay with HCT-15 colon, in the assay with HL-60(TB) leukemia, in the assay on HOP-62 NSCLC and in the assay on HT29 colon was > 100 µM throughout. For the same molecule, the TGI with KM12 colon, with NCI-H522 lung, in the assay with SF-268 CNS, in the assay with SNB-19 CNS, in the assay on SNB-75 CNS and with T-47D breast was > 100 µM throughout.

With `C[C@@H]1S[C@H](c2c(F)cccc2Cl)n2c1nc1ccccc12`, the TGI in the assay on 786-0 renal was 28.4 µM; in the assay with A549 NSCLC, 61.3 µM; in the assay with CCRF-CEM leukemia, 42.6 µM; in the assay on HCT-15 colon, 19.3 µM; in the assay with HOP-62 NSCLC, 29.4 µM; in the assay with HT29 colon it was 29.3 µM. Moreover, the TGI was 20.5 µM in the assay on KM12 colon; 25.3 µM with LOX IMVI melanoma; > 100 µM with OVCAR-8 ovarian; 36.3 µM with SF-268 CNS; 88.9 µM in the assay on SNB-19 CNS; 60.8 µM in the assay with SNB-75 CNS. The same molecule gave a TGI with T-47D breast of 79.5 µM.

Consider `CC(C)(C)OC(=O)N(O)[C@@H]1CC[C@H](n2cnc3c(N)ncnc32)C1`, for which the TGI in the assay with 786-0 renal, in the assay with A549 NSCLC, in the assay with CCRF-CEM leukemia, in the assay with HCT-15 colon, with HOP-62 NSCLC and in the assay on HT29 colon was > 100 µM throughout. In addition, the TGI in the assay with KM12 colon, in the assay with LOX IMVI melanoma, with NCI-H522 lung, in the assay on OVCAR-8 ovarian, in the assay on SF-268 CNS and in the assay with SNB-19 CNS was > 100 µM in each case. The TGI with SNB-75 CNS and in the assay on T-47D breast was > 100 µM in each case.

Regarding `Clc1cccc(-c2nc3cccc4c3n2Cc2ncccc2-4)c1`, the TGI in the assay on 786-0 renal, in the assay with A549 NSCLC, with CCRF-CEM leukemia, with HCT-15 colon, in the assay with HOP-62 NSCLC and in the assay on HT29 colon was > 100 µM in each case. Also, the TGI in the assay on KM12 colon was > 100 µM; with NCI-H522 lung it was > 100 µM; in the assay with OVCAR-8 ovarian, > 100 µM; with SF-268 CNS, > 100 µM; in the assay with SNB-19 CNS, > 100 µM; in the assay on SNB-75 CNS, 58.6 µM. Moreover, in the assay with T-47D breast, the TGI was > 100 µM.

On to `CC(O)CNC(=O)Nc1c(C(F)(F)F)cc(-c2ccccc2)[nH]c1=O` (stereo not given), for which the TGI was > 100 µM with 786-0 renal; > 100 µM in the assay with A549 NSCLC; > 100 µM with CCRF-CEM leukemia; > 100 µM with HCT-15 colon; 1.54 µM in the assay on HL-60(TB) leukemia; > 100 µM in the assay with HOP-62 NSCLC. The TGI in the assay on HT29 colon, with KM12 colon, with LOX IMVI melanoma, in the assay on NCI-H522 lung, in the assay with OVCAR-8 ovarian and in the assay with SF-268 CNS was > 100 µM each time. For the same molecule, the TGI with SNB-19 CNS and in the assay on T-47D breast was > 100 µM throughout.

Consider `COc1ccc(Cc2cc(Cc3ccc(OC)cc3)cc(Cc3ccc(OC)cc3)c2)cc1`, for which the TGI with 786-0 renal, in the assay with A549 NSCLC, in the assay with HCT-15 colon, in the assay with HL-60(TB) leukemia, in the assay with HOP-62 NSCLC and in the assay on HT29 colon was > 100 µM throughout. For the same molecule, the TGI in the assay on KM12 colon, in the assay with LOX IMVI melanoma, with NCI-H522 lung, with OVCAR-8 ovarian, with SF-268 CNS and with SNB-19 CNS was > 100 µM in each case. Also, the TGI with SNB-75 CNS and in the assay with T-47D breast was > 100 µM in each case.

`Clc1sc(Cl)c2c1[C@H](Cl)C[C@@H]2Cl`: the TGI is 48.9 µM with 786-0 renal; 86.2 µM with A549 NSCLC; > 100 µM in the assay on CCRF-CEM leukemia; 41.3 µM in the assay with HCT-15 colon; > 100 µM with HOP-62 NSCLC; > 100 µM in the assay with HT29 colon. For the same molecule, the TGI in the assay with KM12 colon was > 100 µM; with LOX IMVI melanoma it was 25.2 µM; in the assay with NCI-H522 lung, 3.31 µM; in the assay with OVCAR-8 ovarian, 34.9 µM; in the assay with SF-268 CNS it was 44.3 µM; in the assay on SNB-75 CNS, 64.7 µM. The same molecule had a TGI in the assay with T-47D breast of 72.9 µM.
